Measured values reported in ChEMBL document CHEMBL3639068, “Small molecule inhibitors of Plasmodium falciparum dihydroorotate dehydrogenase” (2014).

Experiments:
[1] = molecular target: T1, Dihydroorotate dehydrogenase, mitochondrial, putative (Plasmodium vivax (strain Salvador I), UniProt A5K1N1); assay: (§1) Enzymatic Assays: Type 2 DHODH activity was monitored with either the direct assay measuring the formation of orotate or via a chromogen reduction assay using DCIP. Although the extinction coefficient and absorption wavelength are preferable for the chromogen reduction assay, the […] electron acceptor DCIP can be utilized by DHODH as the final electron acceptor in lieu of CoQn when the endogenous substrate is at a low concentration. As such, the direct assay was used to measure the binding affinity of pfDHODH to CoQD and L-DHO. The enzymatic reaction was performed by varying the L-DHO concentration (1-400 μM) or CoQD concentration (1-200 μM) while keeping the other substrate constant and in excess. Inhibition of DHODH by small molecules was evaluated using the chromogen based assay with a final substrate concentration of 200 μM L-DHO, 18 μM CoQD, and 100 μM DCIP, unless otherwise noted.
T1 sequence (A5K1N1 whole entry): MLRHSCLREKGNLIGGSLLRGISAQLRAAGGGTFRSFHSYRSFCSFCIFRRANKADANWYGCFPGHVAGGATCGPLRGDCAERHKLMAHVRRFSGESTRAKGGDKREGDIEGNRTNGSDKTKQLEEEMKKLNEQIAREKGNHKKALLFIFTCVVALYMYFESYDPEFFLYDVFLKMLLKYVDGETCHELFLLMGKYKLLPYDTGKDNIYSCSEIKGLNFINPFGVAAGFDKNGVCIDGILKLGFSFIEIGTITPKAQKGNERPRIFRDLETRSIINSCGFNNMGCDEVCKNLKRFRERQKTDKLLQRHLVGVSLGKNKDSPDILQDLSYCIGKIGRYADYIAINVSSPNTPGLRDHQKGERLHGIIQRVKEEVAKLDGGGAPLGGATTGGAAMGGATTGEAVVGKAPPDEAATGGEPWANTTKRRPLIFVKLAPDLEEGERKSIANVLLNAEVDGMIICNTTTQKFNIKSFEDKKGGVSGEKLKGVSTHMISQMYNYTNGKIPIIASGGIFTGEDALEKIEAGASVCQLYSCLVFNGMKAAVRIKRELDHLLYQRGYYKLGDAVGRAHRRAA

[2] = molecular target: Dihydroorotate dehydrogenase (quinone), mitochondrial (Homo sapiens, UniProt Q02127); assay: as §1
[3] = molecular target: T2, Dihydroorotate dehydrogenase (fumarate) (Saccharomyces cerevisiae S288c, UniProt P28272); assay: as §1
T2 sequence (P28272 whole entry): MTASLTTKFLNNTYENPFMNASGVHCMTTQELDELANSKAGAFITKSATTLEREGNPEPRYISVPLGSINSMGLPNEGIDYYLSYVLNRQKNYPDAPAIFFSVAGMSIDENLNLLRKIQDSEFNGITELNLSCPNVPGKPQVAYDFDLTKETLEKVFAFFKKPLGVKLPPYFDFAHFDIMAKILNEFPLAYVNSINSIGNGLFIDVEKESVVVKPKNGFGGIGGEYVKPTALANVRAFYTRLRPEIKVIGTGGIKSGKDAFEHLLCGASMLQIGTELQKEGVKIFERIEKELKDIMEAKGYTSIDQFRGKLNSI

Dihydroorotate dehydrogenase (quinone), mitochondrial, sequence (Q02127 whole entry): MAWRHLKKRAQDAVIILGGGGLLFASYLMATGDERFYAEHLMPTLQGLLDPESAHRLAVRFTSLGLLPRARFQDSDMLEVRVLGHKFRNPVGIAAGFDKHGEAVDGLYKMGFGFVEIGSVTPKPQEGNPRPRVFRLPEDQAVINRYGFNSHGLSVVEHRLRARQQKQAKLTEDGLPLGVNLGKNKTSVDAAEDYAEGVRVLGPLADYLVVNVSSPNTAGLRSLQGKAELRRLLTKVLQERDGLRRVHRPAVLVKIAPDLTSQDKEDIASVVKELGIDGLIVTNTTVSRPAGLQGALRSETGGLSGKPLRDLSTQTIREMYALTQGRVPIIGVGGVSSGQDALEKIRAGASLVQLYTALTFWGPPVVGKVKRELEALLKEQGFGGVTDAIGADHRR

| SMILES | IC50 [1] [µM] | IC50 [2] [µM] | IC50 [3] [µM] |
| --- | --- | --- | --- |
| Cc1ccccc1/C=C/c1cc(O)c2ccccc2n1 | 5.6 | – | – |
| CCCNC(=O)c1ccc(N2CCN(C)CC2)s1 | – | > 30 | – |
| CCCCCC1CCCc2c1nc1ccccc1c2O (configuration not stated) | – | – | > 10 |
| CCOC(=O)c1[nH]c(C)c(Cc2ccc(OCC)cc2)c1C | – | – | > 10 |
| Fc1cc(I)ccc1Nc1ccnc2cc(Cl)ccc12 | > 10 | > 30 | > 10 |
